Read-outs that look alike come from different tables or passages of the source.
Legend:
[1] = test system: T1, IRE1 (endogenous, KMS-11); assay: cells; set-up: XBP1s mRNA by branched DNA assay in KMS-11 cell lysates after compound treatment; conditions: Homo sapiens, KMS-11, 4 h
T1 construct: endogenous full-length in KMS-11 cells
Description: 15-20k KMS-11 cells in RPMI growth media were seeded into 96-well plates and treated with compounds or DMSO control over a period of 4 h the following day. RNA levels of XBP1s and DGAT2 in KMS-11 cell lysates were measured using the QuantiGene 2.0 bDNA assay technology (Thermofisher). See Supplementary Table 4 for sequences of relevant capture probes. Data analysis was carried out against an assay background control with no cell lysate (no-RNA control). In the case of AMG-18, cells were also stimulated with thapsigargin (Tg, 100 nM) 30 min after compound addition. No Tg was used when treating cells with all other compounds. Samples were run in duplicate. To investigate whether this peculiar conformation had any role in the mechanism of activation of G-1749, we evaluated different tails to substitute the ethyl carbamate on the naphthyl moiety (Fig. 3, Supplementary Table 2). […] This is likely due to clashes with residues lining the front pocket, which in turn would force the tails to occupy the back pocket and break the salt bridge, thereby causing RNase inhibition. […] Experiments in KMS-11 cells (Fig. 3b, c, right panels) confirmed the effect of these tail modifications on IRE1 RNase activation. […] The chemical substituents tolerated by the front pocket seem to be very limited: even a minor substitution of the carbamate oxygen atom to a larger [compound left out], from ethyl carbamate to propyl amide (compound 6), or from methyl carbamate to methyl or ethyl amide (compound 4 or 5, respectively), or increasing the tail length by one atom, from ethyl to propyl carbamate (compound 11), is enough to impart a switch from activation to inhibition (Fig. 3b, c). […] RNA cleavage was measured by a kinetic fluorescence assay using an XBP1-like RNA hairpin substrate and IRE1 LKR construct (Q470-L977). Background from the no-protein control was subtracted from signal before calculating fold change. Source data are provided as a Source Data file. Data are presented as the mean for measurements from two independent experiments (n = 2). c RNA levels for IRE1 RNase product XBP1s measured by bDNA assay of lysates from KMS-11 cells treated with compounds for 4 h. Background from the no-RNA control was subtracted from signal before calculating fold change. Source data are provided as a Source Data file. Data are presented as the mean for measurements from two independent experiments (n = 2). d, e Analytical Ultracentrifugation sedimentation velocity (SV-AUC) experiments for (d), IRE1 LKR (Q470-L977) unphosphorylated and autophosphorylated and (e), IRE1 LKR unphosphorylated in the presence of slight excess G-9807 and G-1749. Calculated sedimentation coefficients for IRE1 monomer (3.1 svedbergs) and dimer (4.6 svedbergs) are highlighted by dotted lines. Source data are provided as a Source Data file.

[2] = target: Inositol-Requiring Enzyme 1 (IRE1) (Homo sapiens, UniProt O75460); assay: biochemical; set-up: gene ERN1; IRE1 cytoplasmic kinase-RNase construct; kinetic fluorescence RNA cleavage (FAM/BHQ XBP1 stem-loop) by IRE1 LKR Q470-L977
Description: A 5′-Carboxyfluorescein (FAM)-and 3′-Black Hole Quencher (BHQ)-labeled single stem-loop mini-substrate containing XBP1 sequence (sequence reported in Supplementary Table 4) was used as substrate for cleavage by IRE1 LKR (Q470-L977) or IRE1 KR (G547-L977) in 20 mM HEPES pH 7.5, 50 mM potassium acetate, 1 mM magnesium acetate, 1 mM dithiothreitol, 0.05% v/v TritonX-100. Concentrations were as follows: 8 nM IRE1 LKR and 200 nM RNA substrate; 22 nM IRE1 KR-0P and 200 nM RNA substrate; 2 nM IRE1 KR 3P and 500 nM RNA substrate. RNA cleavage was measured kinetically over an hour at room temperature as an increase in fluorescence. The final reaction was carried out in 20 µL in 384-well plates. Samples were run in duplicate. To investigate whether this peculiar conformation had any role in the mechanism of activation of G-1749, we evaluated different tails to substitute the ethyl carbamate on the naphthyl moiety (Fig. 3, Supplementary Table 2). […] This is likely due to clashes with residues lining the front pocket, which in turn would force the tails to occupy the back pocket and break the salt bridge, thereby causing RNase inhibition. […] Experiments in KMS-11 cells (Fig. 3b, c, right panels) confirmed the effect of these tail modifications on IRE1 RNase activation. […] The chemical substituents tolerated by the front pocket seem to be very limited: even a minor substitution of the carbamate oxygen atom to a larger [compound left out], from ethyl carbamate to propyl amide (compound 6), or from methyl carbamate to methyl or ethyl amide (compound 4 or 5, respectively), or increasing the tail length by one atom, from ethyl to propyl carbamate (compound 11), is enough to impart a switch from activation to inhibition (Fig. 3b, c). […] RNA cleavage was measured by a kinetic fluorescence assay using an XBP1-like RNA hairpin substrate and IRE1 LKR construct (Q470-L977). Background from the no-protein control was subtracted from signal before calculating fold change. Source data are provided as a Source Data file. Data are presented as the mean for measurements from two independent experiments (n = 2). c RNA levels for IRE1 RNase product XBP1s measured by bDNA assay of lysates from KMS-11 cells treated with compounds for 4 h. Background from the no-RNA control was subtracted from signal before calculating fold change. Source data are provided as a Source Data file. Data are presented as the mean for measurements from two independent experiments (n = 2). d, e Analytical Ultracentrifugation sedimentation velocity (SV-AUC) experiments for (d), IRE1 LKR (Q470-L977) unphosphorylated and autophosphorylated and (e), IRE1 LKR unphosphorylated in the presence of slight excess G-9807 and G-1749. Calculated sedimentation coefficients for IRE1 monomer (3.1 svedbergs) and dimer (4.6 svedbergs) are highlighted by dotted lines. Source data are provided as a Source Data file.

[3] = target: IRE1 LKR (Q470-L977), autophosphorylated (human) (UniProt O75460); assay: AUC; sedimentation velocity; IRE1 LKR at 3.3, 10 and 30 µM without compound; 25 mM HEPES pH 7.5, 250 mM NaCl, 1 mM TCEP; 20 °C, 45,000 rpm, A280; fit to a monomer-dimer equilibrium model (Sedanal); monomer to dimer
[4] = target: IRE1 LKR (Q470-L977), unphosphorylated (human) (UniProt O75460); assay: AUC; sedimentation velocity; unphosphorylated IRE1 LKR at 3.3, 10 and 30 µM with a slight (ca. 15% molar) excess of G-9807 (4, 12, 35 µM); 25 mM HEPES pH 7.5, 250 mM NaCl, 1 mM TCEP; 20 °C; fit to a monomer-dimer equilibrium model; monomer to dimer
[5] = XBP1s mRNA increase, read-out: EC50 (KMS-11 bDNA assay, XBP1s), activators
[6] = RNase activation, read-out: EC50 (RNase biochemical assay), activators
[7] = XBP1s mRNA decrease, read-out: EC50 (KMS-11 bDNA assay, XBP1s), inhibitors
[8] = RNase inhibition, read-out: EC50 (RNase biochemical assay), inhibitors
[9] = RNase inhibition, inhibitor, read-out: EC50 (RNase biochemical assay), inhibitors

Chain of Inositol-Requiring Enzyme 1 (IRE1) (O75460 547-977): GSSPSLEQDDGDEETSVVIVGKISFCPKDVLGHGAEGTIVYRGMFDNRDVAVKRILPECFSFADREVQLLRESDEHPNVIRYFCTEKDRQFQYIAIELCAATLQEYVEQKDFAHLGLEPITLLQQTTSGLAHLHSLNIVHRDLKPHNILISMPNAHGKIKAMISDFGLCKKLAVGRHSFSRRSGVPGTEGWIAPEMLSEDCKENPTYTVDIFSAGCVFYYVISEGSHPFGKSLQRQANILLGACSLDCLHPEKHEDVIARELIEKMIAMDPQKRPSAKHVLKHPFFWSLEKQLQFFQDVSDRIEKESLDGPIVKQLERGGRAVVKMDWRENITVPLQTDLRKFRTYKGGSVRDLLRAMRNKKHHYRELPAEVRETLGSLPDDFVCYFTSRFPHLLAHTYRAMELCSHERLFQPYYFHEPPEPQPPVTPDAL

| EC50 [1, 7] [nM] | EC50 [2, 9] [nM] | Compound | other results |
| --- | --- | --- | --- |
| – | – | C/C=C/C(=O)Nc1cccc2c(Oc3ncccc3-c3ccnc(N[C@H]4CCCNC4)n3)c(C)ccc12 [compound 1] | EC50 [1, 5]: 331 ± 128 nM; EC50 [2, 6]: 7 ± 1 nM |
| – | – | COC(=O)Nc1cccc2c(Oc3ncccc3-c3ccnc(N[C@H]4CCCNC4)n3)c(C)ccc12 [compound 2] | EC50 [1, 5]: 3370 ± 709 nM; EC50 [2, 6]: 4 ± 4 nM |
| – | – | Cc1ccc2c(N)cccc2c1Oc1ncccc1-c1ccnc(N[C@H]2CCCNC2)n1 [compound 3, 3] | EC50 [1, 5]: 3260 ± 480 nM; EC50 ([2]; RNase activation, activator, read-out: EC50 (RNase biochemical assay), activators): 31 ± 23 nM |
| 649 ± 241 | – | CC(=O)Nc1cccc2c(Oc3ncccc3-c3ccnc(N[C@H]4CCCNC4)n3)c(C)ccc12 [compound 4] | EC50 [2, 8]: 8 ± 2 nM |
| 816 ± 346 | – | CCC(=O)Nc1cccc2c(Oc3ncccc3-c3ccnc(N[C@H]4CCCNC4)n3)c(C)ccc12 [compound 5] | EC50 [2, 8]: 28 ± 5 nM |
| 221 ± 52 | – | CCCC(=O)Nc1cccc2c(Oc3ncccc3-c3ccnc(N[C@H]4CCCNC4)n3)c(C)ccc12 [compound 6] | EC50 [2, 8]: 22 ± 35 nM |
| 456 ± 226 | 36 ± 5 | Cc1ccc2c(NC(=O)OC(C)C)cccc2c1Oc1ncccc1-c1ccnc(N[C@H]2CCCNC2)n1 [compound 7, 7] | – |
| 465 ± 154 | 18 ± 3 | Cc1ccc2c(NC(=O)OCC(C)C)cccc2c1Oc1ncccc1-c1ccnc(N[C@H]2CCCNC2)n1 [compound 8, 8] | – |
| 1050 ± 372 | 68 ± 21 | Cc1ccc2c(NC(=O)OCC(C)(C)C)cccc2c1Oc1ncccc1-c1ccnc(N[C@H]2CCCNC2)n1 [compound 9, 9] | – |
| 380 ± 109 | 35 ± 5 | Cc1ccc2c(NC(=O)C#CC(C)(C)C)cccc2c1Oc1ncccc1-c1ccnc(N[C@H]2CCCNC2)n1 [compound 10, 10] | – |
| 234 ± 78 | – | CCCOC(=O)Nc1cccc2c(Oc3ncccc3-c3ccnc(N[C@H]4CCCNC4)n3)c(C)ccc12 [compound 11] | EC50 [2, 8]: 29 ± 6 nM |
| 645 ± 111 | 52 ± 12 | Cc1ccc2c(NC(=O)C#CCC(C)(C)C)cccc2c1Oc1ncccc1-c1ccnc(N[C@H]2CCCNC2)n1 [compound 12, 12] | – |
| – | – | IRE1 LKR (Q470-L977), autophosphorylated (from UniProt O75460 470-977) (domain or fragment) | Kd [3]: 67000 nM; stoichiometry N [3]: 2 |
| – | – | IRE1 LKR (Q470-L977), unphosphorylated (from UniProt O75460 470-977) (domain or fragment) | stoichiometry N [4]: 2 |

Reference: article PMC7736581, “Activation of the IRE1 RNase through remodeling of the kinase front pocket by ATP-competitive ligands” (Nature Communications, 2020)
